Laboratory results from patent publication US20260258003A1, “SLACK-ACTIVATING COMPOUNDS AND THEIR MEDICAL USE” (Johann Wolfgang Goethe-Universität Frankfurt am Main, priority 2023, published 2026).

Experiments:
[1] = test system: CFA-induced paw hypersensitivity of mice; assay: CFA-induced inflammatory pain model; format: in vivo; conditions: 10 mg/kg i.p. 24 h after CFA; 0.5 h and 1 h after administration
Protocol: (§1) Animals: Experiments were performed in 8-16 week-old C57BL/6N mice (Charles River, Sulzfeld, Germany) of either sex. The animals were housed under a 12 h light/dark cycle with access to food and water ad libitum. All experiments adhered to the Animal Research: Reporting on In Vivo Experiments (ARRIVE) guidelines and were approved by and conducted in accordance with the regulations of the local Animal Welfare authorities (Regierungspräsidium Darmstadt, Germany; approval number V54-19c20/15-FR/2011). All behavioral studies were conducted during the light cycle of the day at room temperature (20-24° C.) by an observer blinded for the treatment of the animals and/or their genotype.
Behavioral assessment: Mechanical sensitivity of a hindpaw was assessed using a dynamic plantar aesthesiometer (Ugo Basile, Comerio, VA, Italy). Animals were placed on a wire mesh grid and habituated to the apparatus chamber for 1 h. […] The paw withdrawal latency was recorded automatically and calculated as the average of 6-8 measurements. […] Mechanical sensitivity was again determined 24 h after the CFA injection. Immediately thereafter, drug or vehicle (10% cyclodextrine in 0.9% NaCl) were intraperitoneally administered and the mechanical sensitivity was determined over 3 h. […]

[2] = test system: MC903-induced persistent itch behavior of mice; assay: MC903 model of persistent itch (skin inflammation); format: in vivo; conditions: i.p. at day 8, vs vehicle
Protocol: Similarly, the effect of Compound 6 was also examined in the MC903 model of skin inflammation, which has some characteristics of allergic contact dermatitis and atopic dermatitis^32.
The fur on the dorsolateral aspect of the neck was shaved under brief isoflurane anesthesia. Five days thereafter, 20 μL MC903 (0.2 mM; Calcipotriol, Tocris) solved in absolute ethanol was applied to the skin at the back of the neck in brief anesthesia for 7 consecutive days. On day 8, mice were habituated for 30 min in separate plexiglass cylinders (30 cm diameter). Compounds or vehicle (10% 2-hydroxypropyl-β-cyclodextrine in 0.9% saline) were i.p. administered, and 15 min thereafter spontaneous scratching was recorded over 30 min by videotaping (FIG. 10D). […] These findings are important, because they indicate that Slack activators can ameliorate pruritus that has already established.

[3] = test system: chloroquine-induced scratching behavior of mice; assay: Chloroquine-induced itch model, topical application of creme; format: in vivo; conditions: 5% in hydrophilic creme (Basiscreme DAC), topical 30 min prior to s.c. chloroquine
Protocol: as §1, with “animals.” for “animals and/or their genotype.”
Drug formulation: A creme formulation of Compound 6 and Compound 21 was prepared by mixing a hydrophilic creme (Basiscreme DAC) with 5% of each Slack activator.
Behavioral assessment: Three to four days before the day of the experiment, the fur on the dorsolateral aspect of the neck was shaved under brief isoflurane anesthesia. On the testing day, Compound 6 creme, Compound 21 creme, or creme vehicle were applied topically on the shaved region of the neck under brief isoflurane anesthesia and the mice were habituated to a Plexiglas cylinder (30 cm in diameter) for 30 min immediately thereafter. […] The number of scratching bouts directed towards the nape of the neck was assessed over 30 min by videotaping.

[4] = Microsomal stability assay in liver microsomes; format: in vitro ADME, Sprague-Dawley rats; conditions: 10 μM, rat liver microsomes
Protocol: For Compound 10, the metabolic stability in liver microsomes as shown in Table 4 was determined by the following assay. The test compound was dissolved in DMSO (1 mM). The solubilized test compound (5 μL, final concentration 10 μM) was preincubated at 37° C. in 432 μL of phosphate buffer (0.1 M, pH=7.4) together with 50 μL of NADPH regenerating system (30 mM glucose-6-phosphate, 4 U/mL glucose 6-phosphate dehydrogenase, 10 mM NADP, 30 mM MgCl2). After 5 min, the reaction was started by the addition of 13 μL of microsome mix from the liver of Sprague-Dawley rats (Invitrogen; 20 mg protein/mL in 0.1 M phosphate buffer) in a shaking water bath at 37° C. The reaction was stopped by adding 500 μL of ice-cold methanol at 0, 15, 30, and 60 min. The samples were centrifuged at 5000×g for 5 min at 4° C., and the test compound was quantified from the supernatants by HPLC: the composition of the mobile phase was adapted to the test compound in a range of MeOH 40-90% and water (0.1% formic acid) 10-60%. Flow rate: 1 mL/min; stationary phase: Purospher STAR, RP18, 5 μm, 125×4; precolumn: Purospher STAR, RP18, 5 μm, 4×4; detection wavelength: 254 and 280 nm; injection volume: 50 μL. Control samples were performed to check the test compound's stability in the reaction mixture. First control was without NADPH, which is needed for the enzymatic activity of the microsomes, second control was with inactivated microsomes (incubated for 20 min at 90° C.), and third control was without the test compound (to determine the baseline). The amounts of the test compound were quantified by an external calibration curve. Data are expressed as the mean±SEM remaining compound from three independent experiments. In vitro half-life was calculated by a logarithmic-linear transformation of the remaining amounts of nonmetabolized test compound versus time.

muscarine M3 receptor = target: T1, muscarine M3 receptor (Homo sapiens, UniProt P20309); assay: SafetyScreen44 binding; conditions: substantial = higher than 50%
T1 construct: Eurofins SafetyScreen44

Na+ channel = assay: SafetyScreen44 binding; set-up: species or system rat; conditions: 10 μM; substantial = higher than 50%

T1 sequence (P20309 whole entry): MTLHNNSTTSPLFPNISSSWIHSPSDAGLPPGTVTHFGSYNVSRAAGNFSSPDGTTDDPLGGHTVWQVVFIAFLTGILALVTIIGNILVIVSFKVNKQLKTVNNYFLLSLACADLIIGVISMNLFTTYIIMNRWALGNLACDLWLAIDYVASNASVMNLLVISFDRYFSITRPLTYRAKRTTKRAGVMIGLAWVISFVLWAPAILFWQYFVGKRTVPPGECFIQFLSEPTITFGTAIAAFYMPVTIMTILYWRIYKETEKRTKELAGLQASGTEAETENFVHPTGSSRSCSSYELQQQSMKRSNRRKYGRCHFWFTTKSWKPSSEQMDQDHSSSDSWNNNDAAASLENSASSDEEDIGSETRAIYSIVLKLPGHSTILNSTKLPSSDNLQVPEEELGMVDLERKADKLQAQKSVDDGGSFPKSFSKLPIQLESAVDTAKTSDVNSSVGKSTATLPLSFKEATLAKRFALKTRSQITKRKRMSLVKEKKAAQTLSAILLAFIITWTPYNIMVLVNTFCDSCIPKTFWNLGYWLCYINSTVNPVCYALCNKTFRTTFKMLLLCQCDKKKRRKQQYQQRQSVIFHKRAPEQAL

Structure (SMILES): O=C(O)COCCN1CCN(C2=Nc3ccccc3Oc3ccc(Cl)cc32)CC1 [Compound 6, 2-(2-(4-(2-Chlorodibenzo[b,f][1,4]oxazepin-11-yl)piperazin-1-yl)ethoxy) acetic acid]
- paw withdrawal latencies compared to vehicle-treated animals [1]: significantly increased
- head shaking, MC903 model [2]: significantly ameliorated
- scratching, MC903 model [2]: significantly ameliorated
- chloroquine-induced scratching behavior after topical application [3]: significantly ameliorated scratching behavior

Structure (SMILES): O=c1nc(CN2CCN(C3=Nc4ccccc4Oc4ccc(Cl)cc43)CC2)[nH][nH]1 [Compound 10, 5-((4-(2-Chlorodibenzo[b,f][1,4]oxazepin-11-yl)piperazin-1-yl)methyl)-1,2-dihydro-3H-1,2,4-triazol-3-one]
- Metabolic stability (remaining compound) ([4]; 15 min): 55%
- Metabolic stability (remaining compound) ([4]; 30 min): 35%
- Metabolic stability (remaining compound) ([4]; 60 min): 16%

Structure (SMILES): CN1CCN(C2=Nc3ccccc3Oc3ccc(Cl)cc32)CC1 [Loxapine, 2-chloro-11-(4-methylpiperazin-1-yl)dibenzo[b,f][1,4]oxazepine, reference compound]
- inhibition at 10 µM (muscarine M3 receptor): > 50%
- binding inhibition, Na+ channel (Na+ channel): higher than 50%
